pIC50: −log10 of the molar value.
Tests used:
human polymerase alpha = target: T1, human polymerase alpha (Homo sapiens, UniProt P09884); assay: Homotemplate enzymatic assay, polymerase alpha; format: biochemical; conditions: four concentrations, homotemplate format
T1 construct: purchased Replizyme Ltd (Heslington, York, UK)
T1 sequence (P09884 1-1462): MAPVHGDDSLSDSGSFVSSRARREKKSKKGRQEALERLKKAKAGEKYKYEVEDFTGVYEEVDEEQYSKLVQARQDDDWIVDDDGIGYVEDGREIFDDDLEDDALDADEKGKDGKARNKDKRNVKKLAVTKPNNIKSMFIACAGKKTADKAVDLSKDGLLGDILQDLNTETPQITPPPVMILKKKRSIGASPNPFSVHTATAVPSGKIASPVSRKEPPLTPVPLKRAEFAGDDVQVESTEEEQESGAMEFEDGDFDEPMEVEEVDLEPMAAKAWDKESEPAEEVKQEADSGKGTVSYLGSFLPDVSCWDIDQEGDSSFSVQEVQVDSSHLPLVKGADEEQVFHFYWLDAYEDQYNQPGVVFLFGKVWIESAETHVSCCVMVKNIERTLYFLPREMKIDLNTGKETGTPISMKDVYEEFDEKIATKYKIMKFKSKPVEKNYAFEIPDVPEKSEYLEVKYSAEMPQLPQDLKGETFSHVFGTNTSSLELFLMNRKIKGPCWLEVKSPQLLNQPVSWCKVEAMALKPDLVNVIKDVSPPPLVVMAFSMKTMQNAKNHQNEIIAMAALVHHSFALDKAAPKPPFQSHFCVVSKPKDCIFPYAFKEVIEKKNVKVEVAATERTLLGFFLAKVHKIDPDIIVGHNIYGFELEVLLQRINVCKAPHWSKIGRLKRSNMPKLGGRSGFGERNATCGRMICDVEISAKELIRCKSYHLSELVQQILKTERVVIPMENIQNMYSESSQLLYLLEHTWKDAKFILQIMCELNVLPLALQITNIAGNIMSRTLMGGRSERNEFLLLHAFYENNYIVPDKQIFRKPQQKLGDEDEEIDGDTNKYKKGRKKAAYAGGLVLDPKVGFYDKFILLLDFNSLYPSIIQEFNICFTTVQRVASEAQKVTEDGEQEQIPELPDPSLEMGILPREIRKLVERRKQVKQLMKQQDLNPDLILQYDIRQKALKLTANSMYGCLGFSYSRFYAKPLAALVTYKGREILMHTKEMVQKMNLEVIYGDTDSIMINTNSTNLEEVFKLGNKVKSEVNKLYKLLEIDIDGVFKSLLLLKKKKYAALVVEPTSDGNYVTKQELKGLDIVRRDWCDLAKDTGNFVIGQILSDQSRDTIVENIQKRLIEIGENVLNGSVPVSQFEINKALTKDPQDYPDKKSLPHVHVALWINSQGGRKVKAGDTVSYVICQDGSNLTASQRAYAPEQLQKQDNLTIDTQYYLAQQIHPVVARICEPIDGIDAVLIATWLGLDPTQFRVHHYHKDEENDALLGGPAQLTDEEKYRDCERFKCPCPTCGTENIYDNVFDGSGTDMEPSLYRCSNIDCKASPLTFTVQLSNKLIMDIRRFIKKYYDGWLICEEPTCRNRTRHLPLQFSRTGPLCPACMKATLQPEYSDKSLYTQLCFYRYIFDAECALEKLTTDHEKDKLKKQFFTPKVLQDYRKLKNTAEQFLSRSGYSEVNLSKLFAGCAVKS
Procedure: (§1) To test for selectivity, an enzymatic assay of activity in human polymerase alpha and human polymerase gamma was performed using a homotemplate assay format (Replizyme Ltd., Heslington, York, UK). The IC50 was measured by testing four different concentrations of a selected compound as compared to an untreated control.

human polymerase gamma = target: T2, human polymerase gamma (Homo sapiens, UniProt P54098); assay: Homotemplate enzymatic assay, polymerase gamma; format: biochemical; conditions: four concentrations, homotemplate format
T2 construct: purchased Replizyme Ltd., Heslington, York, UK
T2 sequence (P54098 1-1239): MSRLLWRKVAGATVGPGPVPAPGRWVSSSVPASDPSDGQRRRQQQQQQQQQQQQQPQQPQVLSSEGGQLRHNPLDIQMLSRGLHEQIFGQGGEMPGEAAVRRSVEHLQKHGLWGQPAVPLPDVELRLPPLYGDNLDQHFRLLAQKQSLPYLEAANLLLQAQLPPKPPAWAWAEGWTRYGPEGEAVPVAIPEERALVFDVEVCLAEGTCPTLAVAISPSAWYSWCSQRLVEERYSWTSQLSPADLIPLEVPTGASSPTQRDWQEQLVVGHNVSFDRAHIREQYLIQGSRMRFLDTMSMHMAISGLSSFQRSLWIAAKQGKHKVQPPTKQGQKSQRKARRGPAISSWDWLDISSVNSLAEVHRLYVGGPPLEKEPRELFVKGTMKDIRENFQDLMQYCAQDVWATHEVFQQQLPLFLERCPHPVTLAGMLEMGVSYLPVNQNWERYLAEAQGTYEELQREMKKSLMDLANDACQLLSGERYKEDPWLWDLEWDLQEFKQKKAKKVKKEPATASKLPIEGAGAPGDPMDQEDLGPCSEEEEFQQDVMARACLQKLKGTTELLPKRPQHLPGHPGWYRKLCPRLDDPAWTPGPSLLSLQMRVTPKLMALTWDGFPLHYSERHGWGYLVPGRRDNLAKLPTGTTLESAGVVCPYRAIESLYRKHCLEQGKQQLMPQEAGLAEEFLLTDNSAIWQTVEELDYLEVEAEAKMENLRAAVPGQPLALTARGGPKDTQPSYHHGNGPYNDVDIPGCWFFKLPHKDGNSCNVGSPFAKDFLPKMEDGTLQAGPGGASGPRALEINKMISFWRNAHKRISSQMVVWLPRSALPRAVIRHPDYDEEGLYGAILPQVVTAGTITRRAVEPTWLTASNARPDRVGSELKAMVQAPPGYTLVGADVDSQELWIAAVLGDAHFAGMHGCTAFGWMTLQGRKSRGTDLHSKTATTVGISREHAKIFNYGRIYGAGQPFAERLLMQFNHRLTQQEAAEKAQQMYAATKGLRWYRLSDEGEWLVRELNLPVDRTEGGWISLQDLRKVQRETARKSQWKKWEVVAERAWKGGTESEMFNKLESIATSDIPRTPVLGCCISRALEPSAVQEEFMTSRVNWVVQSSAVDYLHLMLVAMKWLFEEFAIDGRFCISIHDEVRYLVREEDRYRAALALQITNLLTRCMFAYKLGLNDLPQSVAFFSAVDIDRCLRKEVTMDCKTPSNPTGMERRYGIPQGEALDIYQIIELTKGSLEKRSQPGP
Procedure: as §1

Structure (SMILES) | pIC50 (human polymerase alpha) | pIC50 (human polymerase gamma)
Cc1ccc(NC(=O)[C@H](CCCCN)NC(=O)Nc2ccc(OCc3ccccc3)cc2)cc1 [Compound 2, (S)-6-AMINO-2-[3-(4-BENZYLOXY-PHENYL)-UREIDO]-HEXANOIC ACID P-TOLYLAMIDE] | > 5.40 | 4.57
Cc1ccc(NC(=O)[C@@H](CCCCN)NC(=O)Nc2ccc3c(c2)Cc2ccccc2-3)cc1 [Compound 173, (R)-6-AMINO-2-[3-(9H-FLUOREN-2-YL)-UREIDO]-HEXANOIC ACID P-TOLYLAMIDE] | > 5.40 | 4.80
COC(=O)c1ccc(COc2ccc(NC(=O)N[C@@H](CCCCN)C(=O)Nc3ccc(C)cc3)cc2)cc1 [Compound 199, (S)-4-{4-[3-(5-AMINO-1-P-TOLYLCARBAMOYL-PENTYL)-UREIDO]-PHENOXYMETHYL}-BENZOIC ACID METHYL ESTER] | ~5.40 | 4.49
Cc1cc2cc(NC(=O)[C@H](CCCNC(=O)CN)NC(=O)Nc3ccc4c(c3)Cc3ccccc3-4)ccc2[nH]1 [Compound 297, (S)-5-(2-AMINO-ACETYLAMINO)-2-[3-(9H-FLUOREN-2-YL)-UREIDO]-PENTANOIC ACID (2-METHYL-1H-INDOL-5-YL)-AMIDE] | > 5.40 | 4.89

From patent US20080171783A1, “COMPOSITIONS AND METHODS FOR TREATING HYPERPROLIFERATIVE DISEASE” (Migenix Inc., priority 2006, published 2008)
